Experimental data: patent publication US20250026747A1, “COLIBACTIN DERIVATIVES AND METHODS OF TREATING, AMELIORATING, AND/OR PREVENTING CANCER” (priority 2021, published 2025)

Columns and labels:
linearized pUC19 DNA = assay: DNA cross-linking assay with linearized pUC19 DNA, denaturing agarose gel electrophoresis; format: biochemical; settings: linearized pUC19 DNA, pH 7.0, 1 nM-100 μM
Procedure: FIGS. 6A-6C depict the DNA crosslinking ability of several compounds according to some embodiments. The DNA cross-linking assays employ linear pUC19 DNA. DMSO was used as vehicle (negative control), and 100 μM cisplatin was used as positive controls. The DNA was analyzed by 0.4% NaOH denaturing and agarose gel electrophoresis (90 V, 1.5 h). FIG. 6A depicts the DNA cross-linking comparison of colibactin 770 (3a), stable colibactin 742 (4), and its linear precursor 9 at pH 5.0. FIG. 6B depicts the comparison of the relative DNA cross-linking abilities of colibactin 742 (4) and its linear precursor 9 at pH 5.0. FIG. 6C depicts the comparison of the relative DNA cross-linking abilities of colibactin 742 (4) and its linear precursor 9 at pH 7.0.
FIG. 10 depicts the DNA cross-linking assay employing linear pUC19 DNA and synthetic colibactin (3), 9, and colibactin 742 (4) according to some embodiments. Specifically, 5% DMSO was used as vehicle (negative control), and 100 μM cisplatin was used as positive control. DNA ladder (Lane #1); 5% DMSO (Lane #2); 100 μM cisplatin (Lane #3); 200 μM colibactin (3) (Lane #4); 100 μM colibactin (3) (Lane #5); 10 μM colibactin (3) (Lane #6); 1 μM colibactin (3) (Lane #7); 200 μM 9 (Lane #8); 100 μM 9 (Lane #9); 10 μM 9 (Lane #10); 1 μM 9 (Lane #11); 200 μM colibactin 742 (4) (Lane #12); 100 μM colibactin 742 (4) (Lane #13); 10 μM colibactin 742 (4) (Lane #14); 1 μM colibactin 742 (4) (Lane #15). Conditions (Lane #3): linearized pUC19 DNA (15.4 μM in base pairs), 5% DMSO (vehicle), 100 μM cisplatin, 10 mM citric buffer, pH 5.0, 4 h, 37° C. Conditions (Lanes #4-#7): linearized pUC19 DNA (15.4 μM in base pairs), colibactin (3) (200 μM-1 μM), 5% DMSO, 10 mM citric buffer, pH 5.0, 4 h, 37° C. Conditions (Lanes #8-#11): linearized pUC19 DNA (15.4 μM in base pairs), 9 (200 μM-1 μM), 5% DMSO, 10 mM citric buffer, pH 5.0, 4 h, 37° C. Conditions (Lanes #12-#15): linearized pUC19 DNA (15.4 μM in base pairs), colibactin 742 (4) (200 μM-1 μM), 5% DMSO, 10 mM citric buffer, pH 5.0, 4 h, 37° C. The DNA was analyzed by native, 0.2% NaOH, 0.4% NaOH, and 1% NaOH denaturing agarose gel electrophoresis (90 V, 1.5 h). Linear=linearized DNA in native form, linear-denat.=linearized DNA in denaturing form, linear-XL=linerized DNA cross-linked by colibactins or cisplatin.
FIG. 11 depicts the DNA cross-linking assay employing linear pUC19 DNA and synthetic colibactin fragments 23, 24, and 22. Specifically, 5% DMSO was used as vehicle (negative control), and 100 μM cisplatin was used as positive control. DNA ladder (Lane #1); 5% DMSO (Lane #2); 100 μM cisplatin (Lane #3); 500 μM 23 (Lane #4); 100 μM 23 (Lane #5); 10 μM 23 (Lane #6); 1 μM 23 (Lane #7); 100 nm 23 (Lane #8); 500 μM 24 (Lane #9); 100 μM 24 (Lane #10); 10 μM 24 (Lane #11); 1 μM 24 (Lane #12); 100 nm 24 (Lane #13); 500 μM 22 (Lane #14); 100 μM 22 (Lane #15); 10 μM 22 (Lane #16); 1 μM 22 (Lane #17); 100 nm 22 (Lane #18). Conditions (Lane #2): linearized pUC19 DNA (15.4 μM in base pairs), 5% DMSO (vehicle), 10 mM citric buffer, pH 5.0, 4 h, 37° C. Conditions (Lane #3): linearized pUC19 DNA (15.4 μM in base pairs), 5% DMSO (vehicle), 100 μM cisplatin, 10 mM citric buffer, pH 5.0, 4 h, 37° C. Conditions (Lanes #4-#8): linearized pUC19 DNA (15.4 μM in base pairs), 23 (500 μM-100 nM), 5% DMSO, 10 mM citric buffer, pH 5.0, 4 h, 37° C. Conditions (Lanes #9-#13): linearized pUC19 DNA (15.4 μM in base pairs), 24 (500 μM-1 μM), 5% DMSO, 10 mM citric buffer, pH 5.0, 4 h, 37° C. Conditions (Lanes #14-#18): linearized pUC19 DNA (15.4 μM in base pairs), 22 (500 μM-100 nM), 5% DMSO, 10 mM citric buffer, pH 5.0, 4 h, 37° C. The DNA was analyzed by native, 0.2% NaOH, 0.4% NaOH, and 1% NaOH denaturing agarose gel electrophoresis (90 V, 1.5 h). Linear=linearized DNA in native form, linear-denat.=linearized DNA in denaturing form, linear-XL=DSB/linerized DNA cross-linked by colibactins or cisplatin. […]

[1] = Stability of colibactin 770 in aqueous buffer (LC-MS time course); format: physicochemical
Procedure: FIG. 9 depicts the percentage of colibactin 770 (M+Na) over time at pH 7.4, 37° C. according to some embodiments. Specifically, the linear precursor to colibactin 770 (nominally 404 nmol), prepared according to Xu et al. (Science 2019, 365) was dissolved in DMSO (100 μL) and the resulting solution was diluted with PBS buffer (400 μL) at 22° C. This solution was immediately warmed to 37° C. in a preheated water bath. Aliquots (15 μL) were taken at 0 min, 5 min, 10 min, 15 min, 30 min, 60 min, 120 min, 180 min, 240 min, 300 min, and 480 min. Each aliquot was dissolved in acetonitrile (150 μL) and then immediately frozen in liquid nitrogen. The frozen aliquots were stored at −78° C. until the time course was complete. Aliquots were quickly thawed and analyzed using a Shimadzu Scientific Instruments QToF 9030 LC-MS system, equipped with a Nexera LC-40D xs UHPLC, consisting of a CBM-40 Lite system controller, a DGU-405 Degasser Unit, two LC-40D XS UHPLC pumps, a SIL-40C XS autosampler and a Column Oven CTO-40S. UV data was collected with a Shimadzu Nexera HPLC/UHPLC Photodiode Array Detector SPD M-40 in the range of 190-800 nm. Mass spectra were recorded with the quadrupole time-of-flight (QToF) 9030 mass spectrometer. The samples were held at 4° C. in the autosampler compartment. […]

eukaryotic cells = assay: Genotoxicity of synthetic colibactin 770 in eukaryotic cells; format: cell-based; settings: eukaryotic cells treated with the synthetic compound

## C[C@H]1CCC(C2=C(CC(=O)NCC(=O)c3csc(C(=O)C(=O)c4csc(CNC(=O)CC5=C(C6=N[C@@H](C)CC6)C(=O)NC56CC6)n4)n3)C3(CC3)NC2=O)=N1 [colibactin 770 (3a)]
Linearized pUC19 DNA
  DNA interstrand cross-link (ICL) formation: fails to produce detectable levels of ICLs
[1]; pH 7.0
  stability at pH 7.0: readily decomposes
[1]; pH 7.4, 37° C.
  time to degradation in aqueous buffer: ≤ 2 h
Eukaryotic cells
  genotoxicity: no genotoxicity was observed
